This note sets out measurements from US6326476A, “Heparin derivatives and process for the preparation thereof” (Pharmacia AB, priority 1991, dated 2001).

For this data set, the system named is Sprague-Dawley rats. The note with it: rat, in vivo, 2 mg/kg.

Procedure: Res 15 191-197 was performed in Sprague-Dawley rats weighing 200-250 g anaesthetized with Mebumal/Stesolid (Dumex A/S Copenhagen). The template device (Simplate, General Diagnostics, Durham, N.C.) was applied longitudinally to the dorsal part of the tail, taking care to avoid large veins. Blood from the wound was then carefully removed every 30 sec, with blotting paper. A minimum of six rats were used for each compound and dose. Bleeding times were measured from the moment the tail was incised until the first arrest of bleeding. The bleeding time was recorded with an accuracy of 30 sec. Two bleeding times were always determined in each rat, viz. 10 min before and 10 min after drug administration, and the results are expressed as the prolongation of bleeding time.

Regarding heparin [Standard heparin], the “Prolongation of bleeding time” value is 12.8 min.
